Results: patent publication US7877241B2, “System and method for identifying behavioral signatures” (University of Maryland, Baltimore, priority 2005, dated 2011)
Where two headings read alike, the source gives them in different places.

Columns and labels:
[1] = tested on: C57BL/6J mice; details: cited from earlier work
[2] = tested on: C57BL/6J males; experiment: SEE open-field test with pattern screening of mice injected with anxiolytic and anxiogenic drugs; format: in vivo, mouse; details: vs vehicle, diazepam 1 or 2 mg/kg, FG-7142 10 mg/kg, PTZ 20 mg/kg, i.p., training set only
Procedure: Behavioral data for the exemplary embodiments was gathered using the SEE open-field test described above. A mouse was introduced to a 2.5 meter circular pen and allowed to freely explore the pen for 30 minutes while the mouse's location was video-tracked and digitized at a rate of 25-30 Hz with a spatial resolution of approximately 1 cm. The tracked coordinates are stored on a storage device and imported into the SEE software. Using SEE software procedures the path is further smoothed and segmented into stops and progression segments. The data file of each animal thus included 45,000-54,000 data pints of its coordinates in the arena. Because small, local movements during stopping cannot be properly captured using available tracking technology, the analysis was limited to progression segments. Depending on the activity of the test subject, progression segments generally contain […] (100-1000 s) per animal. […]
FIG. 3 is a flow chart for a method of isolating candidate behavioral patterns according to an embodiment of the present invention. In step 302, the data points are quantified for a feature vector. In the embodiment of the present invention being described, each data point observed during the animal progression is quantified using seven “features” (variables) (t, d, v, a, j, h, c). […]
In step 306, the difference in relative frequencies are analyzed. […]

[3] = tested on: behavioral effects of cocaine; details: in vivo; cited from earlier work
[4] = tested on: DBA/2J mice; details: cited from earlier work
[5] = database having only C57BL/6J mice

CN1C(=O)CN=C(c2ccccc2)c2cc(Cl)ccc21 [diazepam]
path curvature [1, 5]: dose-dependently decreased
relative frequency of performing first pattern (3,*,*,4,1,*,3) ([2]; FIG. 6A): significantly reduced
relative frequency of performing second pattern (3,1,4,*,3,5,*) ([2]; FIG. 6B): dose-dependent effect

O=C(NCCCCN1CCN(c2cccc(Cl)c2Cl)CC1)c1ccc2c(c1)Cc1ccccc1-2 [NGB2904]
antagonizing the behavioral effects of cocaine [3]: effective in antagonizing the behavioral effects of cocaine

CNC(=O)c1cc2c(cn1)[nH]c1ccccc12 [FG 7142, b-Carboline-3-carboxylic acid N-methylamide]
path curvature [1, 5]: increased

CC(N)Cc1ccccc1 (centres unmarked) [amphetamine]
path curvature ([4]; BDA/2J mice (so in the source), genotype comparison DBA/2J vs. C57BL/6J): no effect
increase in distance traveled ([4]; DBA/2J strain (both strains)): 3 fold
increase in distance traveled ([1]; C57BL/6J strain (both strains)): 3 fold
path curvature ([1]; C57BL/6 mice, genotype comparison DBA/2J vs. C57BL/6J): decreased

C1CCc2nnnn2CC1 [pentylenetetrazole]
path curvature [1, 5]: increased

CCCCN1[C@@H]2CC[C@H]1CC(OC(c1ccc(F)cc1)c1ccc(F)cc1)C2 (some centres unmarked) [JHW007]
antagonizing the behavioral effects of cocaine [3]: effective in antagonizing the behavioral effects of cocaine
